Experimental data as given in doi:10.1101/2025.05.23.655736v2 (biorxiv, 2025).
*1 amine or outer side, *2 acyl side, *3 side chain or, on linkers, in order; H or OH if unused. Where a SMILES comes first, the peptide text is derived from it. [ ]: non-standard residue; d: D form. d(isoGln) = NC(=O)[C@@H](CCC(=O)[*:2])N[*:1]

Experiments:
[1] = molecular target: T1, PcsBCHAP (CHAP domain of PcsB) (Streptococcus pneumoniae, UniProt A0A0H2ZQ76); assay: biochemical; settings: read-out: kd (1/s)
T1 sequence (A0A0H2ZQ76 274-392): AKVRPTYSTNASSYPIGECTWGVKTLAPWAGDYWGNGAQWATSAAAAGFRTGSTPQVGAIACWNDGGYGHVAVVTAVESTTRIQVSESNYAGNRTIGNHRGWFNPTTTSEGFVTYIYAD

[2] = molecular target: T1, PcsBCHAP (CHAP domain of PcsB); assay: biochemical; settings: read-out: ka (1/Ms)
[3] = molecular target: T1, PcsBCHAP (CHAP domain of PcsB); assay: SPR; format: binding

Row | SMILES | koff [1] [s⁻¹] | kon [2] [M⁻¹ s⁻¹] | Kd [3] [nM]
1 | C[C@H](N)C(=O)N[C@H](CCC(=O)N[C@@H](CCCCN)C(=O)N[C@H](C)C(=O)N[C@H](C)C(=O)O)C(N)=O [AiQKADAD] (H-A[d(isoGln)]K[dA][dA]-OH) | 0.00502 | 99600 | 
2 | N[C@H](CCC(=O)N[C@H](CCC[C@H](N)C(=O)O)C(=O)O)C(=O)O [iE-DAP] | 0.017 | 158000 | 
3 | NCCCC[C@H](NC(=O)CC[C@@H](N)C(=O)O)C(=O)O [iE-Lys] | 0.00956 | 102000 | 94.1

The remaining lines, values ahead:

Row | koff [1] [s⁻¹] | kon [2] [M⁻¹ s⁻¹] | Kd [3] [nM] | SMILES
4 | 0.036 | 33300 |  | C[C@H](N)C(=O)N[C@H](CCC(=O)N[C@@H](CCCCN)C(=O)N[C@H](C)C(=O)N[C@H](C)C(=O)O)C(=O)O [AEKADAD]
5 | 0.00394 | 6280 |  | CC(=O)N[C@H]1C(O)O[C@H](CO)[C@@H](O)[C@@H]1O[C@H](C)C(=O)N[C@@H](C)C(=O)N[C@H](CCC(=O)N[C@@H](CCC[C@@H](N)C(=O)O)C(=O)O)C(=O)O (stereo partly shown) [M-TriDAP]
6 | 0.0117 | 98200 |  | CC(=O)N[C@H]1C(O)O[C@H](CO)[C@@H](O)[C@@H]1O[C@H](C)C(=O)N[C@@H](C)C(=O)N[C@H](CCC(=O)N[C@@H](CCCCN)C(=O)O)C(N)=O (stereo partly shown) [M-TriLYS]
